Data as given in ChEMBL document CHEMBL6078707, “Preferential Synaptic Type of GABA-A Receptor Ligands Enhancing Neuronal Survival and Facilitating Functional Recovery After Ischemic Stroke” (J Med Chem, 2024).

Key:
[1] = Permeability of compound in PBS buffer at pH7.4 at 100 uM incubated for 5 hrs by UPLC-MS based PAMPA assay; type: ADME; settings: pH 7.4, read-out: permeability
[2] = Thermodynamic solubility of compound in phosphate buffer at pH 7.4 at 2 mg measured after 24 hrs by HPLC analysis; type: physicochemical; settings: read-out: Therm_solubility
[3] = Half-life in male Sprague-Dawley rat at 5 mg/kg, ip by HPLC analysis; type: ADME, organism-based; settings: in vivo
[4] = Half-life in human plasma; type: ADME, cell-free
[5] = Terminal half-life in male Sprague-Dawley rat plasma at 3 mg/kg, iv measured after 480 mins by LC-ESI/MS-MS analysis; type: ADME, organism-based; settings: read-out: beta t1/2
[6] = MRT in male Sprague-Dawley rat brain at 3 mg/kg, iv measured after 480 mins by LC-ESI/MS-MS analysis; type: ADME, organism-based
[7] = Terminal half-life in male Sprague-Dawley rat at 5 mg/kg, ip measured after 480 mins by LC-ESI/MS-MS analysis; type: ADME, organism-based; settings: in vivo, read-out: beta t1/2
[8] = MRT in male Sprague-Dawley rat at 5 mg/kg, ip measured after 480 mins by LC-ESI/MS-MS analysis; type: ADME, organism-based; settings: in vivo
[9] = MRT in male Sprague-Dawley rat plasma at 3 mg/kg, ip measured after 480 mins by LC-ESI/MS-MS analysis; type: ADME, organism-based
[10] = Cmax in male Sprague-Dawley rat plasma at 3 mg/kg, ip measured after 480 mins by LC-ESI/MS-MS analysis; type: ADME, organism-based
[11] = AUC (0 to t) in male Sprague-Dawley rat brain at 3 mg/kg, iv measured after 480 mins by LC-ESI/MS-MS analysis; type: ADME, organism-based; settings: in vivo, 8 h
[12] = Cmax in male Sprague-Dawley rat brain at 3 mg/kg, iv measured after 480 mins by LC-ESI/MS-MS analysis; type: ADME, organism-based
[13] = AUC (0 to t) in male Sprague-Dawley rat plasma at 3 mg/kg, iv measured after 480 mins by LC-ESI/MS-MS analysis; type: ADME, organism-based; settings: in vivo, 8 h
[14] = Volume of distribution in male Sprague-Dawley rat at 5 mg/kg, ip measured after 480 mins by LC-ESI/MS-MS analysis; type: ADME, organism-based; settings: in vivo, 8 h
[15] = Unbound drug concentration in male Sprague-Dawley rat brain at 3 mg/kg, ip measured after 480 mins by LC-ESI/MS-MS analysis; type: ADME, organism-based; settings: in vivo, 8 h
[16] = Permeability across basolateral to apical side in MDCKII-MDR1 cells at pH 7.4; type: ADME, cell-based, Canis lupus familiaris; settings: dog, MDCK-MDR1, pH 7.4
[17] = Volume of distribution in male Sprague-Dawley rat plasma at 3 mg/kg, iv measured after 480 mins by LC-ESI/MS-MS analysis; type: ADME, organism-based
[18] = Terminal half-life in male Sprague-Dawley rat plasma at 3 mg/kg, ip measured after 480 mins by LC-ESI/MS-MS analysis; type: ADME, organism-based; settings: read-out: beta t1/2
[19] = AUC (0 to t) in male Sprague-Dawley rat plasma at 3 mg/kg, ip measured after 480 mins by LC-ESI/MS-MS analysis; type: ADME, organism-based
[20] = MRT in male Sprague-Dawley rat brain at 3 mg/kg, ip measured after 480 mins by LC-ESI/MS-MS analysis; type: ADME, organism-based
[21] = Metabolic stability in human liver microsomes assessed as half-life; type: ADME, Microsome
[22] = Metabolic stability in human liver microsomes assessed as intrinsic clearance; type: ADME, Microsome; settings: read-out: CLH
[23] = Drug metabolism in human liver microsomes assessed as hydroxylation mediated metabolite formation by LCMS analysis; type: ADME, Microsome
[24] = AUC (0 to t) in male Sprague-Dawley rat brain at 3 mg/kg, ip measured after 480 mins by LC-ESI/MS-MS analysis; type: ADME, organism-based; settings: in vivo, 8 h
[25] = Cmax in male Sprague-Dawley rat brain at 3 mg/kg, ip measured after 480 mins by LC-ESI/MS-MS analysis; type: ADME, organism-based
[26] = Permeability across apical to basolateral side in MDCKII-MDR1 cells at pH 7.4; type: ADME, cell-based, Canis lupus familiaris; settings: dog, MDCK-MDR1, pH 7.4; read-out: permeability
[27] = Cmax in male Sprague-Dawley rat at 5 mg/kg, ip measured after 480 mins by LC-ESI/MS-MS analysis; type: ADME, organism-based; settings: in vivo
[28] = Tmax in male Sprague-Dawley rat plasma at 3 mg/kg, ip measured after 480 mins by LC-ESI/MS-MS analysis; type: ADME, organism-based
[29] = Terminal half-life in male Sprague-Dawley rat brain at 3 mg/kg, iv measured after 480 mins by LC-ESI/MS-MS analysis; type: ADME, organism-based; settings: read-out: beta t1/2
[30] = Drug distribution in MCAO-reperfusion induced male Sprague-Dawley rat brain at 1.5 mg/kg, ip administered once daily for 3 days starting from 1.5 hrs post reperfusion by DESI mass spectrometric imaging analysis; type: ADME, organism-based; settings: in vivo, 72 h, time 3 day
[31] = Tmax in male Sprague-Dawley rat brain at 3 mg/kg, iv measured after 480 mins by LC-ESI/MS-MS analysis; type: ADME, organism-based
[32] = MRT in male Sprague-Dawley rat plasma at 3 mg/kg, iv measured after 480 mins by LC-ESI/MS-MS analysis; type: ADME, organism-based
[33] = Terminal half-life in male Sprague-Dawley rat brain at 3 mg/kg, ip measured after 480 mins by LC-ESI/MS-MS analysis; type: ADME, organism-based; settings: read-out: beta t1/2
[34] = Tmax in male Sprague-Dawley rat brain at 3 mg/kg, ip measured after 480 mins by LC-ESI/MS-MS analysis; type: ADME, organism-based
[35] = Clearance in male Sprague-Dawley rat at 5 mg/kg, ip measured after 480 mins by LC-ESI/MS-MS analysis; type: ADME, organism-based; settings: in vivo
[36] = Clearance in male Sprague-Dawley rat plasma at 3 mg/kg, iv measured after 480 mins by LC-ESI/MS-MS analysis; type: ADME, organism-based
[37] = Unbound drug concentration in male Sprague-Dawley rat plasma at 3 mg/kg, ip measured after 480 mins by LC-ESI/MS-MS analysis; type: ADME, organism-based; settings: in vivo, 8 h
[38] = AUC (0 to t) in male Sprague-Dawley rat at 5 mg/kg, ip measured after 480 mins by LC-ESI/MS-MS analysis; type: ADME, organism-based; settings: in vivo

## Cn1c(=O)c2c(ncn2C)n(C)c1=O [CAFFEINE]
[1]
  Papp at 5 h, 100 µM: 15.2 ×10⁻⁶ cm/s

## Cc1ccc(-c2nc3ccc(C)cn3c2CC(=O)N(C)C)cc1 [ZOLPIDEM]
[2]
  solubility thermodynamic at 24 h: > 2000 µg/mL
[3]
  half-life: 30.6 min
[4]
  half-life: 120 min

## Cc1ccc(-c2nc3ccc(C)cn3c2CC(=O)N(C)C)cc1.Cc1ccc(-c2nc3ccc(C)cn3c2CC(=O)N(C)C)cc1.O=C(O)C(O)C(O)C(=O)O [ZOLPIDEM TARTRATE]
[1]
  Papp at 5 h, 100 µM: 21.6 ×10⁻⁶ cm/s

## Cc1ccc2nc(-c3ccc(F)cc3)c(CC(=O)N(C)C)n2n1.O=C(O)C(O)C(O)C(=O)O
[2]
  solubility thermodynamic at 24 h: > 2000 µg/mL
[1]
  Papp at 5 h, 100 µM: 9.79 ×10⁻⁶ cm/s

## CCN1CCCC1CNC(=O)c1cc(S(N)(=O)=O)ccc1OC (stereo not given) [SULPIRIDE]
[1]
  Papp at 5 h, 100 µM: 0.016 ×10⁻⁶ cm/s

## COc1ccc(NC(=O)Cc2c(-c3ccc(F)cc3)nc3ccc(C)cn23)cc1.O=C(O)C(O)C(O)C(=O)O
[1]
  Papp at 5 h, 100 µM: 1.03 ×10⁻⁶ cm/s

## Cc1ccc2nc(-c3ccc(F)cc3)c(CC(=O)N3CCSCC3)n2n1.O=C(O)C(O)C(O)C(=O)O
[2]
  solubility thermodynamic at 24 h: 320 µg/mL
[1]
  Papp at 5 h, 100 µM: 11.7 ×10⁻⁶ cm/s

## Cc1ccc2nc(-c3ccc(F)cc3)c(CC(=O)N3CCCC3)n2n1.O=C(O)C(O)C(O)C(=O)O
[1]
  Papp at 5 h, 100 µM: 22.9 ×10⁻⁶ cm/s

## Cc1ccc2nc(-c3ccc(F)cc3)c(CC(=O)Nc3ccccc3F)n2c1.O=C(O)C(O)C(O)C(=O)O
[1]
  Papp at 5 h, 100 µM: 6.25 ×10⁻⁶ cm/s

## Cc1ccc2nc(-c3ccc(F)cc3)c(CC(=O)Nc3ccccc3)n2c1.O=C(O)C(O)C(O)C(=O)O
[1]
  Papp at 5 h, 100 µM: 5.29 ×10⁻⁶ cm/s

## Cc1ccc2nc(-c3ccc(F)cc3)c(CC(=O)N3CCCC3)n2c1.O=C(O)C(O)C(O)C(=O)O
[5]
  half-life: 47.8 min
[6]
  MRT: 65.5 min
[7]
  half-life: 30.6 min
[2]
  solubility thermodynamic at 24 h: 1870 µg/mL
[8]
  MRT: 27.6 min
[9]
  MRT: 50.9 min
[10]
  Cmax: 4500 ng/mL
[11]
  AUCt: 15265 ng·min/g
[12]
  Cmax: 445 ng/g
[13]
  AUCt: 538253 ng·min/g
[14]
  Vd: 0.104 L/kg
[15]
  Cp(f): 348.03 nM
[16]
  Papp B→A: 29.7 ×10⁻⁶ cm/s
[17]
  Vd: 0.383 L/kg
[18]
  half-life: 270 min
[19]
  AUC(0-t) at 8 h: 2140 ng·h/mL
[20]
  MRT: 102 min
[21]
  half-life: 176 min
[22]
  microsomal CLint: 9.8 µL/min/mg
[23]
  Drug metabolism: metabolite_detected
[24]
  AUCt: 8229 ng·min/g
[25]
  Cmax: 220 ng/g
[26]
  Papp A→B: 55.6 ×10⁻⁶ cm/s
[1]
  Papp at 5 h, 100 µM: 29.7 ×10⁻⁶ cm/s
[27]
  Cmax: 2340 ng/mL
[28]
  Tmax: 5 min
[29]
  half-life: 135 min
[30]
  Drug uptake: Active
[31]
  Tmax: 5 min
[32]
  MRT: 39.7 min
[33]
  half-life: 653 min
[34]
  Tmax: 5 min
[35]
  CL/F: 2.35 mL/min
[36]
  clearance: 5.56 mL/min/kg
[37]
  Drug uptake(free): 2482.75 nM
[38]
  AUC(0-t) at 8 h: 39 ng·h/mL

## Cc1ccc2nc(-c3ccc(F)cc3)c(CC(=O)Nc3ccc(F)cc3)n2c1.O=C(O)C(O)C(O)C(=O)O
[1]
  Papp at 5 h, 100 µM: 6.06 ×10⁻⁶ cm/s

## COc1ccc(NC(=O)Cc2c(-c3ccc(F)cc3)nc3ccc(C)nn23)cc1.O=C(O)C(O)C(O)C(=O)O
[2]
  solubility thermodynamic at 24 h: 130 µg/mL
[1]
  Papp at 5 h, 100 µM: 433 ×10⁻⁶ cm/s

## Cc1ccc2nc(-c3ccc(F)cc3)c(CC(=O)N3CCOCC3)n2n1.O=C(O)C(O)C(O)C(=O)O
[2]
  solubility thermodynamic at 24 h: 1590 µg/mL
[1]
  Papp at 5 h, 100 µM: 9.99 ×10⁻⁶ cm/s
